The test is described as follows: itch prevention effect experiment (somesthetic testing, powder applied to the skin over the whole body). The format is in vivo, examinees (male: 2, female: 1). The following applies: for proportion of itch: itches without application set to 100, climbing/running 100 times, eight hours from test start; for itch removal / itch prevention effect bodily sensed: somesthetic testing, result in words. The method, then: Purpose of Experiment The fine powder of the aluminum chloride hexahydrate and the cyclodextrin (referred to as the CD) were each used alone for application to the skin over the whole body. From the result, whether the itch prevention effect was able to be bodily sensed or not was determined through somesthetic testing.
Participated Examinees three (male: 2, female: 1)
Testing Method Fine powder compositions of Experiment 1 to Experiment 3 were applied to the skin over the whole body. The climbing of a low mountain (altitude: 300 to 400 m) of 2 to 20 km and running of 2 to 15 km were executed 100 times appropriately for all seasons and for two years with the respective samples. Whether the itch was clearly removed or not and the appearance of the itch was able to be prevented or not were measured setting eight hours from the test start as terminal time. During the period, the somesthetic testing was conducted for determination. The total count of itches developed without application of various kinds of fine powder agents to the skin over the whole body (the head, the face, the body, and the entire feet) was set to 100. The degree of the itch was indicated by a “proportion of itch.”

Regarding `OC[C@H]1O[C@@H]2O[C@H]3[C@H](O)[C@@H](O)[C@@H](O[C@H]4[C@H](O)[C@@H](O)[C@@H](O[C@H]5[C@H](O)[C@@H](O)[C@@H](O[C@H]6[C@H](O)[C@@H](O)[C@@H](O[C@H]7[C@H](O)[C@@H](O)[C@@H](O[C@H]1[C@H](O)[C@H]2O)O[C@@H]7CO)O[C@@H]6CO)O[C@@H]5CO)O[C@@H]4CO)O[C@@H]3CO` [α-CD], the proportion of itch worked out at 100% and the “itch removal / itch prevention effect bodily sensed” value was “The itch was not removed”.

For `OC[C@H]1O[C@@H]2O[C@H]3[C@H](O)[C@@H](O)[C@@H](O[C@H]4[C@H](O)[C@@H](O)[C@@H](O[C@H]5[C@H](O)[C@@H](O)[C@@H](O[C@H]6[C@H](O)[C@@H](O)[C@@H](O[C@H]7[C@H](O)[C@@H](O)[C@@H](O[C@H]8[C@H](O)[C@@H](O)[C@@H](O[C@H]1[C@H](O)[C@H]2O)O[C@@H]8CO)O[C@@H]7CO)O[C@@H]6CO)O[C@@H]5CO)O[C@@H]4CO)O[C@@H]3CO` [β-CD], the proportion of itch was found to be 100% and the “itch removal / itch prevention effect bodily sensed” value was “the itch prevention effect was not able to be bodily sensed”.

With `OC[C@H]1O[C@@H]2O[C@H]3[C@H](O)[C@@H](O)[C@@H](O[C@H]4[C@H](O)[C@@H](O)[C@@H](O[C@H]5[C@H](O)[C@@H](O)[C@@H](O[C@H]6[C@H](O)[C@@H](O)[C@@H](O[C@H]7[C@H](O)[C@@H](O)[C@@H](O[C@H]8[C@H](O)[C@@H](O)[C@@H](O[C@H]9[C@H](O)[C@@H](O)[C@@H](O[C@H]1[C@H](O)[C@H]2O)O[C@@H]9CO)O[C@@H]8CO)O[C@@H]7CO)O[C@@H]6CO)O[C@@H]5CO)O[C@@H]4CO)O[C@@H]3CO` [γ-CD], the proportion of itch is 100% and the “itch removal / itch prevention effect bodily sensed” value is “the itch prevention effect was not able to be bodily sensed”.

The values are drawn from patent publication US20160015637A1, “ANTI-ITCHING POWDER” (Lilac Laboratory Co., Ltd., priority 2014, published 2016).
